Tested on: intraocular pressure
Experiment: Intraocular pressure in rabbits after injection of an aqueous suspension into the right eye, compared with untreated left eyes
Format: in vivo
Conditions: suspension of 2 mg/mL compound with 7.5 mg/mL sodium carboxymethylcellulose injected into right eyes, dosages 60 μg, 100 μg and 140 μg, versus untreated left eyes, maintained over the 14 days of the test, FIGS. 1 to 3
Method: An aqueous suspension was produced containing 2 mg/mL of compound 21 illustrated above together with 7.5 mg/mL of sodium carboxymethylcellulose.

CC(C)OCc1ccc2c(c1)c1c3c(c4c(c1n2CCCOC(=O)CN(C)C)Cc1ccccc1-4)C(=O)NC3 [Compound 21]
effect on intraocular pressure over time: significantly increased lowering of intraocular pressure

From patent US20060293378A1, “Method of lowering intraocular pressure” (priority 2005, published 2006)
